Experiment in all cases: relative viability (nuclei count vs DMSO), 5 days (fraction); higher = more cells survive
Compound in assay [1]: CCn1c(-c2nonc2N)nc2c(C#CC(C)(C)O)ncc(OC[C@H]3CCCNC3)c21 + Cc1cc(Nc2cc(N3CCN(C)CC3)nc(Sc3ccc(NC(=O)C4CC4)cc3)n2)n[nH]1 [Tozasertib] (partner 0.1 µM)
An outline of the steps: (§1)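 Lung cancer cell lines, seeded in 1536-well plates, were treated the following day by pin tool with a single drug or with five library-drug doses (not always all listed) in √10 steps on top of a fixed anchor-drug dose. Cells were fixed and nuclei stained in one step after 5 days, and nuclei were counted. Relative viability is the nuclei count for treated wells divided by that for vehicle wells, reported as medians of duplicate plates.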

Compound in assay [2]: CCOC1=CC=CC=C1N=NC2=C(NN(C2=O)C3=NC(=CS3)C4=CC=CC=C4)C [BAM7] + CC1(C)CCC(c2ccc(Cl)cc2)=C(CN2CCN(c3ccc(C(=O)NS(=O)(=O)c4ccc(N[C@H](CCN5CCOCC5)CSc5ccccc5)c(S(=O)(=O)C(F)(F)F)c4)cc3)CC2)C1 [Navitoclax] (partner 0.5 µM)
An outline of the steps:
as §1

Compound in assay [3]: CCn1c(-c2nonc2N)nc2c(C#CC(C)(C)O)ncc(OC[C@H]3CCCNC3)c21 + CC(C)C[C@H](NC(=O)[C@H](Cc1ccccc1)NC(=O)c1cnccn1)B(O)O [Bortezomib] (partner 0.002 µM)
An outline of the steps: as §1

Compound in assay [4]: CCOC1=CC=CC=C1N=NC2=C(NN(C2=O)C3=NC(=CS3)C4=CC=CC=C4)C [BAM7] + COc1cccc2cc(-c3nc([C@H]4CC[C@H](C(=O)O)CC4)n4ncnc(N)c34)[nH]c12 [OSI-027] (partner 0.5 µM)
An outline of the steps: as §1

With UMC-11, the relative viability in assay [1] (first compound 0.01 µM) stood at 0.198; in assay [1] (first compound 0.03162 µM), 0.209; in assay [1] (first compound 0.1 µM), 0.194; in assay [1] (first compound 0.3162 µM) it was 0.201; in assay [1] (first compound 1 µM), 0.197; in assay [2] (first compound 0.5 µM), 0.306. Also, the relative viability in assay [2] (first compound 5 µM) was found to be 0.319; in assay [2] (first compound 15.81 µM), 0.391; in assay [2] (first compound 50 µM), 0.372; in assay [3] (first compound 0.01 µM), 0.676; in assay [3] (first compound 0.03162 µM) it was 0.905; in assay [3] (first compound 0.1 µM), 0.833. In addition, the relative viability in assay [3] (first compound 0.3162 µM) was 0.48; in assay [3] (first compound 1 µM) it was 0.661; in assay [4] (first compound 0.5 µM), 0.465; in assay [4] (first compound 5 µM), 0.461; in assay [4] (first compound 15.81 µM) it was 0.461; in assay [4] (first compound 50 µM), 0.487.

These data come from the supplement of paper PMC10307832.
